From patent publication US6472348B1, “Pyridone derivatives and herbicides” (Kumiai Chemical Industry Co., Ltd., priority 1996, dated 2002)

How the values were obtained:
Type in all cases: in vivo
Set-up in all cases: scale not given here
wheat (Tr) = assay: Test Example 5: crop plant selectivity by upland field soil treatment (wheat), phytotoxicity; settings: 21st day after application
In short: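 A greenhouse pot test in which wheat and weeds share sand-filled pots; after the soil application, damage is graded against set standards three weeks later.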

cotton (Go) = assay: Test Example 4: crop plant selectivity by upland field soil treatment (cotton), phytotoxicity; settings: evaluated 21st day after application
In short: (§1)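 Seeds of cotton and several weed species were sown in sand-filled pots and covered with soil before soil treatment with the test compound. Plants were grown in a greenhouse, and herbicidal effect and crop phytotoxicity were scored against set standards 21 days after application.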

[1] = tested on: common lambsquarters (Ch); assay: Test Example 4: crop plant selectivity by upland field soil treatment (cotton), herbicidal effects; settings: evaluated 21st day after application
In short: as §1

pale smartweed (Po) [2] = assay: as above; settings: evaluated 21st day after application
In short: as §1

barnyardgrass (Ec) = assay: Test Example 3: herbicidal effects by upland field foliage treatment
In short: (§2)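 Foliage-applied treatment on weeds pre-grown for 2 weeks in a greenhouse. Pots held sand (surface area 120 cm^2); seeds were sown and covered with soil. Evaluation: graded herbicidal effect 14 days post-application.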

Diaitaria ciliaris (Di) = assay: as above
In short: as §2

[3] = tested on: common lambsquarters (Ch); assay: as above
In short: as §2

rice flatsedge (Ci) = assay: as above
In short: as §2

pale smartweed (Po) [4] = assay: as above
In short: as §2

slender amaranth (Am) = assay: as above
In short: as §2

[5] = 100 g of the active ingredient per 10 ares, evaluated on the 14th day after treatment
[6] = 100 g active ingredient per 10 ares, evaluated 14th day after treatment

SMILES | Phytotoxicity Tr (wheat (Tr); dose 1.6 g ai/10a) | Phytotoxicity Go (cotton (Go); dose 1.6 g ai/10 a) | Phytotoxicity Go (cotton (Go); dose 6.3 g ai/10 a) | Herbicidal effects Ch ([1]; dose 1.6 g ai/10 a) | Herbicidal effects Ch ([1]; dose 6.3 g ai/10 a) | Herbicidal effects Po (pale smartweed (Po) [2]; dose 1.6 g ai/10 a) | Herbicidal effects Po (pale smartweed (Po) [2]; dose 6.3 g ai/10 a) | Herbicidal effects Ec (barnyardgrass (Ec); [5]) | Herbicidal effects Di (Diaitaria ciliaris (Di); [5]) | Herbicidal effects Ch [3, 5] | Herbicidal effects Ci (rice flatsedge (Ci); [5]) | Herbicidal effects Po (pale smartweed (Po) [4]; [5]) | Herbicidal effects Am (slender amaranth (Am); [5]) | Phytotoxicity Tr (wheat (Tr); dose 6.3 g ai/10a) | Herbicidal effects Ec (barnyardgrass (Ec); [6]) | Herbicidal effects Di (Diaitaria ciliaris (Di); [6]) | Herbicidal effects Ch [3, 6] | Herbicidal effects Ci (rice flatsedge (Ci); [6]) | Herbicidal effects Po (pale smartweed (Po) [4]; [6]) | Herbicidal effects Am (slender amaranth (Am); [6])
CON=Cc1cc(-c2ccc(C(F)(F)F)n(C)c2=O)c(F)cc1Cl [Compound No. 1-72, 5-(1-methyl-6-trifluoromethyl-2(1H)-pyridon-3-yl)-2-chloro-4-fluorobenzaldehydeoxime-O-methyl ether] | 1 | 0 | 0 | 5 | 5 | 5 | 5 | 5 | 5 | 5 | 5 | 5 | 5 | – | – | – | – | – | – | –
CCCC(=O)c1cc(-c2ccc(C(F)(F)F)n(C)c2=O)c(F)cc1Cl [Compound No. 1-194, 3-[4-chloro-2-fluoro-5-(1-oxobutyl)phenyl]-1-methyl-6-trifluoromethyl-2(1H)-pyridone] | – | – | 1 | – | 5 | – | 5 | – | – | – | – | – | – | 1 | 5 | 5 | 5 | 5 | 5 | 5
C#CCN1C(=O)COc2cc(F)c(-c3ccc(C(F)(F)F)n(C)c3=O)cc21 [Compound No. 2-1, 3-[7-fluoro-2,3-dihydro-4-(2-propynyl)-1,4-benzoxazin-3-on-6-yl]-1-methyl-6-trifluoromethyl-2(1H)-pyridone] | 0 | 2 | – | 5 | – | 5 | – | – | – | – | – | – | – | – | 5 | 5 | 5 | 5 | 5 | 5
C#CCn1c(=O)sc2cc(F)c(-c3ccc(C(F)(F)F)n(C)c3=O)cc21 [Compound No. 3-1, 3-[6-fluoro-3-(2-propynyl)-benzothiazolin-2-on-5-yl]-1-methyl-6-trifluoromethyl-2(1H)-pyridone] | – | 0 | 1 | 5 | 5 | 5 | 5 | – | – | – | – | – | – | 1 | 5 | 5 | 5 | 5 | 5 | 5
COCc1cc2c(-c3ccc(C(F)(F)F)n(C)c3=O)c(F)cc(Cl)c2o1 [Compound No. 4-4, 3-(7-chloro-5-fluoro-2-methoxymethylbenzofuran-4-yl)-1-methyl-6-trifluoromethyl-2-(1H)-pyridone] | 2 | 0 | 1 | 5 | 5 | 5 | 5 | – | – | – | – | – | – | – | 5 | 5 | 5 | 5 | 5 | 5
Cn1c(C(F)(F)F)ccc(-c2c(F)cc(Cl)c3oc(CO)cc23)c1=O [Compound No. 4-5, 3-(7-chloro-5-fluoro-2-hydroxymethylbenzofuran-4-yl)-1-methyl-6-trifluoromethyl-2-(1H)-pyridone] | – | – | 2 | – | 5 | – | 5 | – | – | – | – | – | – | 1 | 5 | 5 | 5 | 5 | 5 | 5
Cn1c(C(F)(F)F)ccc(-c2c(F)cc(Cl)c3occc23)c1=O [Compound No. 4-28, 3-(7-chloro-5-fluorobenzofuran-4-yl)-1-methyl-6-trifluoromethyl-2-(1H)-pyridone] | – | 0 | 1 | 5 | 5 | 5 | 5 | – | – | – | – | – | – | 2 | 4 | 5 | 5 | 5 | 5 | 5
Cn1cc(-c2cc(Oc3ccccc3)c(Cl)cc2F)c(=O)cc1C(F)(F)F [Compound No. 6-19, 5-(4-chloro-2-fluoro-5-phenoxyphenyl)-1-methyl-2-trifluoromethyl-4(1H)-pyridone] | 0 | 0 | 0 | 5 | 5 | 5 | 5 | – | – | – | – | – | – | 0 | 5 | 5 | 5 | 5 | 5 | 5
